Measurements from article PMC3355094 (PLoS Pathogens, 2012).

How the values were obtained:
[1] = Isothermal titration calorimetry, CCL2 wild type and variants binding to fucosylated chitobiose
Procedure: ITC experiments were performed on a VP-ITC instrument (MicroCal). The calorimeter was calibrated according to the manufacturer's instructions. Protein and carbohydrate samples were dialyzed against NMR buffer at room temperature using a 3.5 kDa membrane (Spectra/Por) and Micro DispoDialyzer (100 Da cutoff; Harvard Apparatus), respectively. The disaccharide Fucα1,3GlcNAc-OMe was not dialyzed but dissolved in NMR buffer. The sample cell (1.4 mL) was loaded with 70 µM protein; carbohydrate concentration in the syringe was 2–4 mM. A titration experiment typically consisted of 30–50 injections, each of 3 µL volume and 6 s duration, with a 6.7 min interval between additions. Stirring rate was 307 rpm. Raw data were integrated, corrected for nonspecific heats, normalized for the molar concentration, and analyzed according to a 1∶1 binding model.

[2] = system: C. elegans wildtype (N2); assay: C. elegans liquid toxicity assay, feeding on recombinant E. coli; type: in vivo, Caenorhabditis elegans
[3] = system: C. elegans bre-1(ye4); assay: as above; type: in vivo, Caenorhabditis elegans; details: bre-1(ye4) mutant, vs vector control
[4] = system: C. elegans fut-1(ok892); assay: as above; type: in vivo, Caenorhabditis elegans; details: fut-1(ok892) mutant
[5] = system: C. elegans fut-6(ok475)fut-1(ok892); assay: as above; type: in vivo, Caenorhabditis elegans; details: fut-6(ok475)fut-1(ok892) double mutant, vs vector control
[6] = system: D. melanogaster; assay: Biotoxicity assay with purified protein added to the rearing medium; type: in vivo, Drosophila melanogaster
[7] = system: A. aegypti larvae; assay: Biotoxicity assay with recombinant E. coli; type: in vivo, Aedes aegypti; details: CCL2-expressing E. coli vs vector control
[8] = system: A. castellanii; assay: Biotoxicity assay with recombinant E. coli; type: in vivo, Acanthamoeba castellanii; details: CCL2-expressing E. coli vs vector control
[9] = system: C. elegans fut-1(ok892); assay: CCL2 nematotoxicity assay in solid media; type: in vivo, Caenorhabditis elegans
[10] = ITC, 299K, protein binding to GlcNAcβ1,4[Fucα1,3]GlcNAcβ1-sp
[11] = ITC, 299K, protein binding to GlcNAcβ1,4[Fucα1,3]GlcNAcβ1-sp, listed as Wild type
[12] = Table S6, ligand GlcNAc1,4[Fuc1,3]GlcNAc-O-spacer, This study
[13] = purified CCL2, relative to the control (BSA)

## CCL2: novel fruiting body lectin from the ink cap mushroom Coprinopsis cinerea, recombinant, monomeric β-trefoil
[1]; [10]
  Kd: 1.4 µM
  ΔH: -50 kJ/mol
  −TΔS: 16 kJ/mol
[1]; [11]
  ΔH: -49.8 kJ/mol
  −TΔS: 16.3 kJ/mol
[1]; [12]
  –TΔS: 16.3 kJ/mol
  –ΔH: 49.8 kJ/mol
[2]; 30% of CCL2-expressing E. coli among the fed bacteria
  reduction of development of L1 larvae: more than 95%
[2]; N2 fed E. coli expressing the lectin, L4 stage after 48 h
  toxicity: development of L1 larvae vs vector control: stopped the development of all wildtype (N2) L1 larvae
[3]
  susceptibility to CCL2-mediated toxicity: not and completely resistant
[4]; after 48 hours
  larvae reaching L4 stage: half
[4]; vs vector control
  susceptibility to CCL2-mediated toxicity: partially resistant
[5]
  susceptibility to CCL2-mediated toxicity: not and completely resistant
[6]; purified CCL2, BSA control
  development of pupae and flies vs control: significantly different from the control
[6]; [13]
  delay in development of flies: 10 fold
  delay in development of pupae: 4 fold
[7]
  toxicity: No significant differences
[8]
  toxicity: No significant differences
[9]
  additional time required to reach L4: at least 24 h
  resistance to CCL2: partial resistance
